How the values were obtained:
[1] = system: antibodies in sera from SARS patients (sera 1a, 1b, 2, 6, 37, 62, London, SARS-yellow, SARS-green); format: binding, human; parameters: Binding of serum 6 to linear peptides of protein X1 of SARS-CoV Urbani / Binding of serum 37 to linear peptides of protein X1 of SARS-CoV Urbani / Binding of serum 6 to looped/cyclic peptide (PEPSCAN-ELISA) / Binding of serum 37 to looped/cyclic peptide (PEPSCAN-ELISA) / Binding of serum 37 to looped/cyclic peptides of protein X1 of SARS-CoV Urbani / Binding of serum 6 to linear peptides of protein X2 / Binding of serum 37 to linear peptides of protein X2 / Binding of serum 37 to looped/cyclic peptides of protein X2 of SARS-CoV Urbani / Binding of serum 6 to linear peptides of protein M of SARS-CoV Urbani / Binding of serum 37 to linear peptides of protein M of SARS-CoV Urbani / Binding of serum 6 to looped/cyclic peptides of protein M of SARS-CoV Urbani / Binding of serum 37 to looped/cyclic peptides of protein M of SARS-CoV Urbani / Binding of serum 6 to linear peptides of protein X3 of SARS-CoV Urbani / Binding of serum 37 to linear peptides of protein X3 of SARS-CoV Urbani / Binding of serum 37 to looped/cyclic peptides of protein X3 of SARS-CoV Urbani / Binding of serum 6 to linear peptides of protein X4 of SARS-CoV Urbani / Binding of serum 37 to linear peptides of protein X4 of SARS-CoV Urbani / Binding of serum 37 to looped/cyclic peptides of protein X4 of SARS-CoV Urbani / Binding of serum 6 to linear peptides of protein X5 of SARS-CoV Urbani / Binding of serum 37 to linear peptides of protein X5 of SARS-CoV Urbani / Binding of serum 37 to looped/cyclic peptides of protein X5 of SARS-CoV Urbani / Binding of serum 6 to linear peptides of protein N of SARS-CoV Urbani / Binding of serum 37 to linear peptides of protein N of SARS-CoV Urbani / Binding of serum 6 to linear peptide (PEPSCAN-ELISA) / Binding of serum 1a to looped/cyclic peptides of protein N of SARS-CoV Urbani / Binding of serum 1b to looped/cyclic peptides of protein N of SARS-CoV Urbani / Binding of serum 2 to looped/cyclic peptides of protein N of SARS-CoV Urbani / Binding of serum 6 to looped/cyclic peptides of protein N of SARS-CoV Urbani / Binding of serum 37 to looped/cyclic peptides of protein N of SARS-CoV Urbani / Binding of serum 62 to looped/cyclic peptides of protein N of SARS-CoV Urbani / Binding of serum London to looped/cyclic peptides of protein N of SARS-CoV Urbani / Binding of serum SARS-green to looped/cyclic peptides of protein N of SARS-CoV Urbani: unit not given here
[2] = system: control sera (pooled serum of ten healthy LUMC hospital workers; commercial negative donor pooled serum from the Dutch bloodbank); format: binding, human; parameters: Binding of Control serum LUMC to linear peptides / Binding of Control serum Blood-bank to linear peptides / Binding of Control serum LUMC to looped peptides / Binding of Control Serum Blood-Bank to Looped peptides / Binding of Control serum LUMC to linear peptides of the protein M of SARS-CoV Urbani / Binding of Control serum Blood-bank to linear peptides of the protein M of SARS-CoV Urbani / Binding of Control serum LUMC to looped peptides of the protein M of SARS-CoV Urbani / Binding of Control Serum Blood-Bank to Looped peptides of the protein M of SARS-CoV Urbani: unit not given here
[3] = system: rabbit serum obtained by immunizing a rabbit with the SARS-CoV strain Frankfurt 1; format: binding; parameters: Binding of a rabbit serum to linear peptides / Binding of a rabbit serum to looped peptides / Rabbit serum linear peptides / Rabbit serum looped peptides / Binding of a rabbit serum to linear peptides of protein N of SARS-CoV Urbani (Rabbit serum linear peptides) / Binding of a rabbit serum to looped/cyclic peptides of protein N of SARS-CoV Urbani (Rabbit serum looped peptides): unit not given here

FAAYNRYRIGNYKLN
Binding of serum 1a to linear peptides of protein M of SARS-CoV Urbani [1]: 0.6
Binding of serum 1a to looped/cyclic peptides of protein M of SARS-CoV Urbani [1]: 0.8
Binding of serum 1b to linear peptides of protein M of SARS-CoV Urbani [1]: 0.3
Binding of serum 1b to looped/cyclic peptides of protein M of SARS-CoV Urbani [1]: 0.4
Binding of serum 2 to linear peptides of protein M of SARS-CoV Urbani [1]: 0.5
Binding of serum 2 to looped/cyclic peptides of protein M of SARS-CoV Urbani [1]: 0.7
Binding of serum 6 to linear peptides of protein M of SARS-CoV Urbani [1]: 0.4
Binding of serum 6 to looped/cyclic peptides of protein M of SARS-CoV Urbani [1]: 1.3
Binding of serum 37 to linear peptides of protein M of SARS-CoV Urbani [1]: 0.5
Binding of serum 37 to looped/cyclic peptides of protein M of SARS-CoV Urbani [1]: 0.6
Binding of serum 62 to linear peptides of protein M of SARS-CoV Urbani [1]: 0.7
Binding of serum 62 to looped/cyclic peptides of protein M of SARS-CoV Urbani [1]: 0.6
Binding of serum London to linear peptides of protein M of SARS-CoV Urbani [1]: 0.3
Binding of serum London to looped/cyclic peptides of protein M of SARS-CoV Urbani [1]: 0.7
Binding of serum SARS-green to linear peptides of protein M of SARS-CoV Urbani [1]: 0.2
Binding of serum SARS-green to looped/cyclic peptides of protein M of SARS-CoV Urbani [1]: 0.2
Binding of serum SARS-yellow to linear peptides of protein M of SARS-CoV Urbani [1]: 0.0
Binding of serum SARS-yellow to looped/cyclic peptides of protein M of SARS-CoV Urbani [1]: 0.8
Binding of Control Serum Blood-Bank to Looped peptides of the protein M of SARS-CoV Urbani [2]: 0.6
Binding of Control serum Blood-bank to linear peptides of the protein M of SARS-CoV Urbani [2]: 0.7
Binding of Control serum LUMC to linear peptides of the protein M of SARS-CoV Urbani [2]: 0.3
Binding of Control serum LUMC to looped peptides of the protein M of SARS-CoV Urbani [2]: 0.7
Rabbit serum linear peptides [3]: 0.3
Rabbit serum looped peptides [3]: 0.6

FAFACADGTRHTYQL
Binding of serum 1a to linear peptides of protein X4 of SARS-CoV Urbani [1]: 0.7
Binding of serum 1a to looped/cyclic peptides of protein X4 of SARS-CoV Urbani [1]: 0.8
Binding of serum 1b to linear peptides of protein X4 of SARS-CoV Urbani [1]: 0.5
Binding of serum 1b to looped/cyclic peptides of protein X4 of SARS-CoV Urbani [1]: 0.5
Binding of serum 2 to linear peptides of protein X4 of SARS-CoV Urbani [1]: 0.3
Binding of serum 2 to looped/cyclic peptides of protein X4 of SARS-CoV Urbani [1]: 0.9
Binding of serum 6 to linear peptides of protein X4 of SARS-CoV Urbani [1]: 0.5
Binding of serum 6 to looped/cyclic peptides of protein X4 of SARS-CoV Urbani [1]: 0.5
Binding of serum 37 to linear peptides of protein X4 of SARS-CoV Urbani [1]: 0.6
Binding of serum 37 to looped/cyclic peptides of protein X4 of SARS-CoV Urbani [1]: 0.6
Binding of serum 62 to linear peptides of protein X4 of SARS-CoV Urbani [1]: 0.7
Binding of serum 62 to looped/cyclic peptides of protein X4 of SARS-CoV Urbani [1]: 0.5
Binding of serum London to linear peptides of protein X4 of SARS-CoV Urbani [1]: 0.6
Binding of serum London to looped/cyclic peptides of protein X4 of SARS-CoV Urbani [1]: 0.2
Binding of serum SARS-green to linear peptides of protein X4 of SARS-CoV Urbani [1]: 0.4
Binding of serum SARS-green to looped/cyclic peptides of protein X4 of SARS-CoV Urbani [1]: 0.5
Binding of serum SARS-yellow to linear peptides of protein X4 of SARS-CoV Urbani [1]: 0.2
Binding of serum SARS-yellow to looped/cyclic peptides of protein X4 of SARS-CoV Urbani [1]: 0.4
Binding of Control Serum Blood-Bank to Looped peptides [2]: 0.8
Binding of Control serum Blood-bank to linear peptides [2]: 0.7
Binding of Control serum LUMC to linear peptides [2]: 0.5
Binding of Control serum LUMC to looped peptides [2]: 0.7
Rabbit serum linear peptides [3]: 0.5
Rabbit serum looped peptides [3]: 0.1

FAYSNRNRFLYIIKL
Binding of serum 1a to linear peptides of protein M of SARS-CoV Urbani [1]: 0.6
Binding of serum 1b to linear peptides of protein M of SARS-CoV Urbani [1]: 0.4
Binding of serum 2 to linear peptides of protein M of SARS-CoV Urbani [1]: 0.7
Binding of serum 6 to linear peptides of protein M of SARS-CoV Urbani [1]: 0.3
Binding of serum 37 to linear peptides of protein M of SARS-CoV Urbani [1]: 0.7
Binding of serum 62 to linear peptides of protein M of SARS-CoV Urbani [1]: 0.7
Binding of serum London to linear peptides of protein M of SARS-CoV Urbani [1]: 0.3
Binding of serum SARS-green to linear peptides of protein M of SARS-CoV Urbani [1]: 0.2
Binding of serum SARS-yellow to linear peptides of protein M of SARS-CoV Urbani [1]: 0.1
Recognition of the peptide by sera of SARS-CoV infected individuals, and form (linear, looped/cyclic) in which it is recognized [1]: recognized in looped/cyclic form
Binding of Control Serum Blood-Bank to Looped peptides of the protein M of SARS-CoV Urbani [2]: 0.4
Binding of Control serum Blood-bank to linear peptides of the protein M of SARS-CoV Urbani [2]: 0.6
Binding of Control serum LUMC to linear peptides of the protein M of SARS-CoV Urbani [2]: 0.4
Binding of Control serum LUMC to looped peptides of the protein M of SARS-CoV Urbani [2]: 0.6
Rabbit serum linear peptides [3]: 0.7
Rabbit serum looped peptides [3]: 0.6

FGWLVIGVAFLAVFQ
Binding of serum 1a to linear peptides of protein X1 of SARS-CoV Urbani [1]: 0.7
Binding of serum 1a to looped/cyclic peptide (PEPSCAN-ELISA) [1]: 0.7
Binding of serum 1b to linear peptides of protein X1 of SARS-CoV Urbani [1]: 0.5
Binding of serum 1b to looped/cyclic peptide (PEPSCAN-ELISA) [1]: 0.8
Binding of serum 2 to linear peptides of protein X1 of SARS-CoV Urbani [1]: 0.5
Binding of serum 2 to looped/cyclic peptide (PEPSCAN-ELISA) [1]: 0.7
Binding of serum 6 to linear peptides of protein X1 of SARS-CoV Urbani [1]: 0.4
Binding of serum 6 to looped/cyclic peptide (PEPSCAN-ELISA) [1]: 0.5
Binding of serum 37 to linear peptides of protein X1 of SARS-CoV Urbani [1]: 0.6
Binding of serum 37 to looped/cyclic peptide (PEPSCAN-ELISA) [1]: 0.6
Binding of serum 62 to linear peptides of protein X1 of SARS-CoV Urbani [1]: 0.6
Binding of serum 62 to looped/cyclic peptide (PEPSCAN-ELISA) [1]: 0.7
Binding of serum London to linear peptides of protein X1 of SARS-CoV Urbani [1]: 0.3
Binding of serum London to looped/cyclic peptide (PEPSCAN-ELISA) [1]: 0.3
Binding of serum SARS-green to linear peptides of protein X1 of SARS-CoV Urbani [1]: 0.1
Binding of serum SARS-green to looped/cyclic peptide (PEPSCAN-ELISA) [1]: 0.4
Binding of serum SARS-yellow to linear peptides of protein X1 of SARS-CoV Urbani [1]: 0.5
Binding of serum SARS-yellow to looped/cyclic peptide (PEPSCAN-ELISA) [1]: 0.6
Binding of Control Serum Blood-Bank to Looped peptides [2]: 0.6
Binding of Control serum Blood-bank to linear peptides [2]: 0.5
Binding of Control serum LUMC to linear peptides [2]: 0.5
Binding of Control serum LUMC to looped peptides [2]: 0.7
Binding of a rabbit serum to linear peptides [3]: 1.2
Binding of a rabbit serum to looped peptides [3]: 0.5

FHLVDFQVTIAEILI
Binding of serum 1a to linear peptides of protein X3 of SARS-CoV Urbani [1]: 0.8
Binding of serum 1a to looped/cyclic peptides of protein X3 of SARS-CoV Urbani [1]: 0.8
Binding of serum 1b to linear peptides of protein X3 of SARS-CoV Urbani [1]: 0.6
Binding of serum 1b to looped/cyclic peptides of protein X3 of SARS-CoV Urbani [1]: 0.4
Binding of serum 2 to linear peptides of protein X3 of SARS-CoV Urbani [1]: 0.7
Binding of serum 2 to looped/cyclic peptides of protein X3 of SARS-CoV Urbani [1]: 0.8
Binding of serum 6 to linear peptides of protein X3 of SARS-CoV Urbani [1]: 0.4
Binding of serum 6 to looped/cyclic peptides of protein X3 of SARS-CoV Urbani [1]: 0.5
Binding of serum 37 to linear peptides of protein X3 of SARS-CoV Urbani [1]: 0.7
Binding of serum 37 to looped/cyclic peptides of protein X3 of SARS-CoV Urbani [1]: 0.7
Binding of serum 62 to linear peptides of protein X3 of SARS-CoV Urbani [1]: 0.6
Binding of serum 62 to looped/cyclic peptides of protein X3 of SARS-CoV Urbani [1]: 0.7
Binding of serum London to linear peptides of protein X3 of SARS-CoV Urbani [1]: 0.6
Binding of serum London to looped/cyclic peptides of protein X3 of SARS-CoV Urbani [1]: 0.2
Binding of serum SARS-green to linear peptides of protein X3 of SARS-CoV Urbani [1]: 0.5
Binding of serum SARS-green to looped/cyclic peptides of protein X3 of SARS-CoV Urbani [1]: 0.3
Binding of serum SARS-yellow to linear peptides of protein X3 of SARS-CoV Urbani [1]: 0.9
Binding of serum SARS-yellow to looped/cyclic peptides of protein X3 of SARS-CoV Urbani [1]: 0.8
Binding of Control Serum Blood-Bank to Looped peptides of the protein X3 of SARS-CoV Urbani [2]: 0.7
Binding of Control serum Blood-bank to linear peptides of the protein X3 of SARS-CoV Urbani [2]: 0.8
Binding of Control serum LUMC to linear peptides of the protein X3 of SARS-CoV Urbani [2]: 0.6
Binding of Control serum LUMC to looped peptides of the protein X3 of SARS-CoV Urbani [2]: 0.8
Rabbit serum linear peptides [3]: 0.3
Rabbit serum looped peptides [3]: 0.5
